For one test, the target named is Adenosine receptor A2a (Rattus norvegicus, UniProt P30543). In words: Binding affinity towards Adenosine A2A receptor of rat brain tissues using [3H]ZM-241385 as radioligand.
Another test addresses T1, Adenosine receptor A1 (Rattus norvegicus, UniProt P25099).
T1 sequence (P25099 whole entry): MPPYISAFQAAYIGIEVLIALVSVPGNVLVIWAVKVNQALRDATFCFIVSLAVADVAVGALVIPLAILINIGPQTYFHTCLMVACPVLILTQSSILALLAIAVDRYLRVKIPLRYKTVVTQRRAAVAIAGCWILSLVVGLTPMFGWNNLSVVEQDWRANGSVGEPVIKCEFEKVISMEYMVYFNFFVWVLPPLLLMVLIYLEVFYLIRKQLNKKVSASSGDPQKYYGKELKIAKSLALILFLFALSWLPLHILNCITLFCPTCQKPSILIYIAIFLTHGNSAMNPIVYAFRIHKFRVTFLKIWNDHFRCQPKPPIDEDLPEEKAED
The experiment in a line: Binding affinity towards Adenosine A1 receptor of rat cerebral cortex using [3H]-DPCPX as radioligand.

The text below walks through data of ChEMBL document CHEMBL1144261, “Synthesis of alkyne derivatives of a novel triazolopyrazine as A(2A) adenosine receptor antagonists” (Bioorg Med Chem Lett, 2005).

Sequence of Adenosine receptor A2a (P30543 whole entry): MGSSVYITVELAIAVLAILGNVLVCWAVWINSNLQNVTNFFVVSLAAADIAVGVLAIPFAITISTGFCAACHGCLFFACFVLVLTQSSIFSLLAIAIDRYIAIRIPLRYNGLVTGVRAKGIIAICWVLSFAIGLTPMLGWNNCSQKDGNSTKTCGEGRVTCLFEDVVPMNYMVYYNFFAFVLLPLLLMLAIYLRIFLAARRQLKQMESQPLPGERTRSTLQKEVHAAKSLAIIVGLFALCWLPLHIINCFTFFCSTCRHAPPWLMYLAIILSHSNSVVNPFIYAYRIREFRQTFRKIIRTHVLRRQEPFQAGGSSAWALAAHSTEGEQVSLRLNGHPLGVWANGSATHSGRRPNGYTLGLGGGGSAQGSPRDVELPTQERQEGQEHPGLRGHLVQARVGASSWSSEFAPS

As to `Nc1nc(C#CCOc2ccc(F)c(Cl)c2)cn2nc(-c3ccco3)nc12`, the Ki at Adenosine receptor A2a was 310 nM; at Adenosine receptor A1, 4300 nM.

For the compound `Nc1nc(C#CC(O)c2ccccc2)cn2nc(-c3ccco3)nc12` (centres undefined), the Ki amounted to 340 nM on Adenosine receptor A2a and 2400 nM at Adenosine receptor A1.

For `Nc1nc(C#CCOc2ccccc2)cn2nc(-c3ccco3)nc12`, the Ki at Adenosine receptor A2a is 390 nM; at Adenosine receptor A1, 530 nM.

On to `Nc1nc(C#CC(O)(c2ccccc2)C(F)(F)F)cn2nc(-c3ccco3)nc12` (centres undefined), for which the Ki worked out at 74 nM at Adenosine receptor A2a and 2200 nM at Adenosine receptor A1.

As for `CN(C)c1ccc(C(O)(C#Cc2cn3nc(-c4ccco4)nc3c(N)n2)C(F)(F)F)cc1` (centres undefined), affinity at Adenosine receptor A2a was put at a Ki of 1100 nM.

For `Nc1nc(C#CCO)cn2nc(-c3ccco3)nc12`, the Ki at Adenosine receptor A2a and on Adenosine receptor A1 was more than 500 nM throughout.

Regarding `Nc1nc(C#CC(O)C2(O)CCCCC2)cn2nc(-c3ccco3)nc12` (centres undefined), the values for the Ki on Adenosine receptor A2a and at Adenosine receptor A1 were 7.3 nM and 11 nM, respectively.

For the compound `CC(O)(C#Cc1cn2nc(-c3ccco3)nc2c(N)n1)c1ccc(O)cc1` (centres undefined), the values for the Ki on Adenosine receptor A2a and at Adenosine receptor A1 were 42 nM and 66 nM, respectively.

As to `CC(C)CCC(C)(O)C#Cc1cn2nc(-c3ccco3)nc2c(N)n1` (centres undefined), the Ki at Adenosine receptor A2a stood at 3.7 nM; at Adenosine receptor A1 it was 24 nM.

Turning to `Nc1nc(C#CC(O)C2(O)CCCC2)cn2nc(-c3ccco3)nc12` (centres undefined), the Ki on Adenosine receptor A2a is 30 nM; on Adenosine receptor A1, 72 nM.

Consider `Nc1nc(C#CC2(N)CCCCC2)cn2nc(-c3ccco3)nc12`, for which the Ki was 210 nM on Adenosine receptor A2a and 35 nM at Adenosine receptor A1.

Regarding `Nc1nc(C#CCOc2cccnc2)cn2nc(-c3ccco3)nc12`, the Ki at Adenosine receptor A2a stood at 92 nM; on Adenosine receptor A1 it was 110 nM.

On to `Nc1nc(C#CC(O)c2csc3ccccc23)cn2nc(-c3ccco3)nc12` (centres undefined), for which the Ki on Adenosine receptor A2a was determined as 260 nM; on Adenosine receptor A1, 73 nM.

Take `Nc1nc(C#CC(O)C2(O)CCC2)cn2nc(-c3ccco3)nc12` (centres undefined): the Ki on Adenosine receptor A2a stood at 12 nM; on Adenosine receptor A1 it was 2.5 nM.

Turning to `CC(O)(C#Cc1cn2nc(-c3ccco3)nc2c(N)n1)c1ccccc1` (centres undefined), the values for the Ki at Adenosine receptor A2a and at Adenosine receptor A1 were 12 nM and 41 nM, respectively.

Take `CC(O)(C#Cc1cn2nc(-c3ccco3)nc2c(N)n1)c1csc2ccccc12` (centres undefined): the Ki at Adenosine receptor A2a worked out at 33 nM; at Adenosine receptor A1 it was 340 nM.

On to `Nc1nc(C#CCC2CCCCC2)cn2nc(-c3ccco3)nc12`, for which the Ki on Adenosine receptor A2a was 280 nM; at Adenosine receptor A1 it was 680 nM.

Turning to `CC(C#Cc1cn2nc(-c3ccco3)nc2c(N)n1)OC(C)(C)C` (centres undefined), the Ki on Adenosine receptor A2a came out at 37 nM; at Adenosine receptor A1 it was 96 nM.

On to `Nc1nc(C#Cc2ccc(F)cc2F)cn2nc(-c3ccco3)nc12`, for which the Ki on Adenosine receptor A2a is more than 1000 nM.

Take `CC(O)(C#Cc1cn2nc(-c3ccco3)nc2c(N)n1)c1ccc([N+]2=CC=NC2)cc1` (centres undefined): the Ki turned out to be 33 nM on Adenosine receptor A2a and 110 nM on Adenosine receptor A1.

As for `CCC(O)(C#Cc1cn2nc(-c3ccco3)nc2c(N)n1)CC`, the Ki on Adenosine receptor A2a turned out to be 9 nM; on Adenosine receptor A1, 33 nM.

On to `CC(O)(C#Cc1cn2nc(-c3ccco3)nc2c(N)n1)Cc1ccncc1` (centres undefined), for which the Ki at Adenosine receptor A2a amounted to 1.1 nM; on Adenosine receptor A1 it was 100 nM.

With `CC(O)(C#Cc1cn2nc(-c3ccco3)nc2c(N)n1)c1ccncc1` (centres undefined), the Ki at Adenosine receptor A2a was determined as 25 nM; at Adenosine receptor A1 it was 170 nM.

Turning to `CC(C)C(O)(C#Cc1cn2nc(-c3ccco3)nc2c(N)n1)C(C)C`, the Ki is 7 nM on Adenosine receptor A2a and 8 nM on Adenosine receptor A1.

`CC(O)(C#Cc1cn2nc(-c3ccco3)nc2c(N)n1)c1cccc(C(F)(F)F)c1F` (centres undefined) came in with a Ki on Adenosine receptor A2a of 1600 nM.

On to `Cn1nc(OCC#Cc2cn3nc(-c4ccco4)nc3c(N)n2)cc1C(F)(F)F`, for which the Ki at Adenosine receptor A2a turned out to be 89 nM; at Adenosine receptor A1, 1800 nM.

The Ki is the equilibrium dissociation constant of an inhibitor or competing ligand from its target. A lower Ki goes with a stronger hold on the target.
